Measurements: article PMC9516332 (Frontiers in Oncology, 2022)
Read-outs that look alike come from different tables or passages of the source.

Key:
AP-1060 (ETV6-NTRK3) = test: Cell viability assay; settings: read-out: IC50 in cell proliferation assay
134 cancer cell lines = test: Cell viability assay (ATPlite, 72 hours), IC50 on cancer cell line panel

CCc1nc(C(N)=O)c(Nc2ccc(N3CCC(N4CCN(C)CC4)CC3)c(OC)c2)nc1NC1CCOCC1 [gilteritinib]
IC50 (AP-1060 (ETV6-NTRK3)): 417 nM
IC50 (134 cancer cell lines; HEC-6, read-out: IC50 in cell proliferation assay, HEC-6 cell line (EGFR p.A289V)): 1430 nM
IC50 (134 cancer cell lines; Homo sapiens, 769-P, read-out: IC50 in cell proliferation assay, cell line 769-P): 1150 nM
IC50 (134 cancer cell lines; Homo sapiens, 786-0, read-out: IC50 in cell proliferation assay, cell line 786-O): 947 nM
IC50 (134 cancer cell lines; Homo sapiens, A 172, read-out: IC50 in cell proliferation assay, cell line A-172): 1630 nM
IC50 (134 cancer cell lines; Homo sapiens, A204, read-out: IC50 in cell proliferation assay, cell line A-204): 392 nM
IC50 (134 cancer cell lines; Homo sapiens, A498, read-out: IC50 in cell proliferation assay, cell line A-498): 552 nM
IC50 (134 cancer cell lines; Homo sapiens, A549, read-out: IC50 in cell proliferation assay, cell line A-549): 630 nM
IC50 (134 cancer cell lines; Homo sapiens, A704, read-out: IC50 in cell proliferation assay, cell line A-704): 962 nM
IC50 (134 cancer cell lines; Homo sapiens, A-375, read-out: IC50 in cell proliferation assay, cell line A-375 (BRAF p.V600E)): 400 nM
IC50 (134 cancer cell lines; Homo sapiens, A-427, read-out: IC50 in cell proliferation assay, cell line A-427): 248 nM
IC50 (134 cancer cell lines; Homo sapiens, ACHN, read-out: IC50 in cell proliferation assay, cell line ACHN): 294 nM
IC50 (134 cancer cell lines; Homo sapiens, AN3-CA, read-out: IC50 in cell proliferation assay, cell line AN3-CA (FGFR2 p.N549K)): 1220 nM
IC50 (134 cancer cell lines; Homo sapiens, ASPC1, read-out: IC50 in cell proliferation assay, cell line AsPC-1): 545 nM
IC50 (134 cancer cell lines; Homo sapiens, AU565, read-out: IC50 in cell proliferation assay, cell line AU565 (ERBB2 amplification)): 1310 nM
IC50 (134 cancer cell lines; Homo sapiens, BT-20, read-out: IC50 in cell proliferation assay, cell line BT-20): 4220 nM
IC50 (134 cancer cell lines; Homo sapiens, BT-474, read-out: IC50 in cell proliferation assay, cell line BT-474 (ERBB2 amplification)): 13900 nM
IC50 (134 cancer cell lines; Homo sapiens, BT-549, read-out: IC50 in cell proliferation assay, cell line BT-549): 469 nM
IC50 (134 cancer cell lines; Homo sapiens, BXPC-3, read-out: IC50 in cell proliferation assay, cell line BxPC-3): 409 nM
IC50 (134 cancer cell lines; Homo sapiens, C-33-A, read-out: IC50 in cell proliferation assay, cell line C-33 A): 344 nM
IC50 (134 cancer cell lines; Homo sapiens, CAL-27, read-out: IC50 in cell proliferation assay, cell line CAL-27): 366 nM
IC50 (134 cancer cell lines; Homo sapiens, CCF-STTG1, read-out: IC50 in cell proliferation assay, cell line CCF-STTG1): 4060 nM
IC50 (134 cancer cell lines; Homo sapiens, CCRF-CEM, read-out: IC50 in cell proliferation assay, cell line CCRF-CEM): 1690 nM
IC50 (134 cancer cell lines; Homo sapiens, COLO 205, read-out: IC50 in cell proliferation assay, cell line COLO 205 (BRAF p.V600E)): 1060 nM
IC50 (134 cancer cell lines; Homo sapiens, COLO-829, read-out: IC50 in cell proliferation assay, cell line COLO 829 (BRAF p.V600E)): 1220 nM
IC50 (134 cancer cell lines; Homo sapiens, DLD-1, read-out: IC50 in cell proliferation assay, cell line DLD-1): 746 nM
IC50 (134 cancer cell lines; Homo sapiens, DU-4475, read-out: IC50 in cell proliferation assay, cell line DU4475 (BRAF p.V600E)): 1440 nM
IC50 (134 cancer cell lines; Homo sapiens, Daoy, read-out: IC50 in cell proliferation assay, cell line Daoy): 3210 nM
IC50 (134 cancer cell lines; Homo sapiens, DoTc2-4510, read-out: IC50 in cell proliferation assay, cell line DoTc2 4510): 318 nM
IC50 (134 cancer cell lines; Homo sapiens, EOL1, read-out: IC50 in cell proliferation assay, cell line EoL-1 (FIP1L1-PDGFRA)): 33 nM
IC50 (134 cancer cell lines; Homo sapiens, FaDu, read-out: IC50 in cell proliferation assay, cell line FaDu): 459 nM
IC50 (134 cancer cell lines; Homo sapiens, G-361, read-out: IC50 in cell proliferation assay, cell line G-361 (BRAF p.V600E)): 328 nM
IC50 (134 cancer cell lines; Homo sapiens, HCC827, read-out: IC50 in cell proliferation assay, cell line HCC827 (EGFR exon19del)): 223 nM
IC50 (134 cancer cell lines; Homo sapiens, HCC4006, read-out: IC50 in cell proliferation assay, cell line HCC4006 (EGFR exon19del)): 540 nM
IC50 (134 cancer cell lines; Homo sapiens, HCT-15, read-out: IC50 in cell proliferation assay, cell line HCT 15): 829 nM
IC50 (134 cancer cell lines; Homo sapiens, HCT-116, read-out: IC50 in cell proliferation assay, cell line HCT 116): 418 nM
IC50 (134 cancer cell lines; Homo sapiens, HEC-1, read-out: IC50 in cell proliferation assay, HEC-1 cell line): 462 nM
IC50 (134 cancer cell lines; Homo sapiens, HEC-1B, read-out: IC50 in cell proliferation assay, HEC-1-B cell line (EGFR p.A864V)): 270 nM
IC50 (134 cancer cell lines; Homo sapiens, HL-60, read-out: IC50 in cell proliferation assay, HL-60 cell line): 438 nM
IC50 (134 cancer cell lines; Homo sapiens, HT, read-out: IC50 in cell proliferation assay, HT cell line): 3410 nM
IC50 (134 cancer cell lines; Homo sapiens, HT-1080, read-out: IC50 in cell proliferation assay, HT-1080 cell line): 202 nM
IC50 (134 cancer cell lines; Homo sapiens, Hs746T, read-out: IC50 in cell proliferation assay, Hs 746.T cell line (MET exon14skip + amplification)): 512 nM
IC50 (134 cancer cell lines; Homo sapiens, Hs-578T, read-out: IC50 in cell proliferation assay, Hs 578T cell line): 1190 nM
IC50 (134 cancer cell lines; Homo sapiens, HuTu80, read-out: IC50 in cell proliferation assay, HuTu 80 cell line): 509 nM
IC50 (134 cancer cell lines; Homo sapiens, J82, read-out: IC50 in cell proliferation assay, J82 cell line): 372 nM
IC50 (134 cancer cell lines; Homo sapiens, Jurkat E6.1, read-out: IC50 in cell proliferation assay, Jurkat E6.1 cell line): 749 nM
IC50 (134 cancer cell lines; Homo sapiens, K562, read-out: IC50 in cell proliferation assay, K-562 cell line): 1540 nM
IC50 (134 cancer cell lines; Homo sapiens, KATO III, read-out: IC50 in cell proliferation assay, KATO III cell line (FGFR2 amplification)): 718 nM
IC50 (134 cancer cell lines; Homo sapiens, KG-1, read-out: IC50 in cell proliferation assay, KG-1 cell line (FGFR1OP2-FGFR1)): 392 nM
IC50 (134 cancer cell lines; Homo sapiens, KLE, read-out: IC50 in cell proliferation assay, KLE cell line): 317 nM
IC50 (134 cancer cell lines; Homo sapiens, KMS-11, read-out: IC50 in cell proliferation assay, KMS-11 cell line (FGFR3 p.Y373C)): 912 nM
IC50 (134 cancer cell lines; Homo sapiens, KU812, read-out: IC50 in cell proliferation assay, Ku812 cell line): 1510 nM
IC50 (134 cancer cell lines; Homo sapiens, Kasumi 1, read-out: IC50 in cell proliferation assay, Kasumi-1 cell line (KIT p.N822K)): 219 nM
IC50 (134 cancer cell lines; Homo sapiens, LC-2-ad, read-out: IC50 in cell proliferation assay, LC-2/ad cell line (CCDC6-RET)): 158 nM
IC50 (134 cancer cell lines; Homo sapiens, LNCaP-Clone-FGC, read-out: IC50 in cell proliferation assay, LNCaP clone FGC cell line): 6820 nM
IC50 (134 cancer cell lines; Homo sapiens, LS174T, read-out: IC50 in cell proliferation assay, LS174T cell line): 652 nM
IC50 (134 cancer cell lines; Homo sapiens, LS-411N, read-out: IC50 in cell proliferation assay, LS411N cell line (BRAF p.V600E)): 1150 nM
IC50 (134 cancer cell lines; Homo sapiens, LoVo, read-out: IC50 in cell proliferation assay, LoVo cell line): 413 nM
IC50 (134 cancer cell lines; Homo sapiens, MCF7, read-out: IC50 in cell proliferation assay, MCF-7 cell line): 514 nM
IC50 (134 cancer cell lines; Homo sapiens, MDA-MB-231, read-out: IC50 in cell proliferation assay, MDA-MB-231 cell line): 1500 nM
IC50 (134 cancer cell lines; Homo sapiens, MDA-MB-453, read-out: IC50 in cell proliferation assay, MDA-MB-453 cell line): 8820 nM
IC50 (134 cancer cell lines; Homo sapiens, MDA-MB-468, read-out: IC50 in cell proliferation assay, MDA-MB-468 cell line): 4890 nM
IC50 (134 cancer cell lines; Homo sapiens, MG-63, read-out: IC50 in cell proliferation assay, MG-63 cell line): 377 nM
IC50 (134 cancer cell lines; Homo sapiens, MIA PaCa-2, read-out: IC50 in cell proliferation assay, MIA PaCa-2 cell line): 340 nM
IC50 (134 cancer cell lines; Homo sapiens, MKN-45, read-out: IC50 in cell proliferation assay, MKN45 cell line (MET amplification)): 1480 nM
IC50 (134 cancer cell lines; Homo sapiens, MOLM-13, read-out: IC50 in cell proliferation assay, MOLM-13 cell line (FLT3 ITD)): 4 nM
IC50 (134 cancer cell lines; Homo sapiens, MOLT-4, read-out: IC50 in cell proliferation assay, MOLT-4 cell line): 1000 nM
IC50 (134 cancer cell lines; Homo sapiens, MV4-11, read-out: IC50 in cell proliferation assay, MV4-11 cell line (FLT3 ITD)): 0.832 nM
